Where a name gives a salt, the structure may show the parent alone.
Tested on: rat foot pad
Experiment: Inhibition of sweat in the rat foot pad (iodine/starch count of activated sweat glands, test foot vs control foot)
Type: in vivo, Sprague Dawley rats
Settings: for Approx. % Inhibition: topical on hind foot pads, photo 40 minutes post treatment
Method: To test the effectiveness of the adrenergic amines encompassed in this invention in inhibiting perspiration the following tests were carried out.
A series of test solutions were prepared by dissolving various quantities of xylometazoline HCl, oxymetazoline HCl and naphazoline HCl in freshly prepared distilled water. In the case of xylometazoline HCl 0.003%, 0.03%, 0.15% and 0.3% solutions were prepared. In the cases for oxymetazoline HCl and naphazoline HCl 0.15% solutions were made. The control material is distilled water.
• A. Prior to testing, rats are routinely acclimated to the laboratory environment for seven days and gross observations are made to ensure good health of animals to be tested. • B. Sprague Dawley rats, male and/or female (175-250 gm) are selected for test and identified by cage label and ear tag number. • C. A minimum of 6 animals is used in testing each solution.
• A. Test room should be maintained at a temperature of 78/± 2/F. • B. • 1. Test animals are injected intramuscularly with Innovar Vet\)\ (.01 ml/100 gm body wt.) by use of a 0.25 ml tuberculin syringe with a 26-27 gauge needle. Animals are then returned to their cages. • 2. […] Both hind feet are then swabbed with 70% ethyl alcohol (ETOH) to remove any debris. • 4. The four interdigital palmar foot pads on one hind foot are then treated with test material while the opposite hind foot is treated with the control material. • 5. After treatment of all animals, an iodine solution (2% in 95% ETOH wt./vol.) is applied to both hind feet. • 6. 30 minutes post treatment the hind feet are then painted with a suspension of starch and castor oil (50/50, wt./vol.). • 7. 40 minutes post treatment Polaroid photos (3X, using Polaroid Type Film 669) are taken of both hind feet in the same frame.
• 1. The number of activated sweat glands in each of the four palmar foot pads is quantitated by manually counting the black dots observed in the photo of the control and test treated feet. • 2. The ratio of the total number of secreting sweat glands on the control foot vs the total number of secreting glands on the test foot is used to estimate the percent inhibition of sweat in the rat foot pad. • 3. The following formula is used to calculate activity: Percent inhibition of sweat in the rat foot pad = [formula]

[1] = Concentration tested 0.15% in distilled water

Structure (SMILES)	Approx. % Inhibition [1]	Approx. % Inhibition (Concentration tested 0.003% in distilled water)	Approx. % Inhibition (Concentration tested 0.03% in distilled water)	Approx. % Inhibition (Concentration tested 0.3% in distilled water)	perspiration inhibition (result in words) (summary of Table I, concentrations 0.003-0.3%)
c1ccc2c(CC3=NCCN3)cccc2c1 [Naphazoline HCl, naphazoline HCl]	~95%				
Cc1cc(C(C)(C)C)c(O)c(C)c1CC1=NCCN1 [Oxymetazoline HCl, oxymetazoline HCl]	~92%				
Cc1cc(C(C)(C)C)cc(C)c1CC1=NCCN1 [Xylometazoline HCl, xylometazoline HCl]	~80%	~30%	~50%	~88%	a dose response has been demonstrated
